The values that follow come from ChEMBL document CHEMBL4715874, “In Vivo Screening of Xanthones from Garcinia oligantha Identified Oliganthin H as a Novel Natural Inhibitor of Convulsions” (J Nat Prod, 2020).

Series [1] is described as follows: Toxicity in AB zebra fish larvae assessed as mortality at >= 25 uM after 6 hrs. The note with it: zebrafish. Details: species or system Danio rerio.
The species entered for series [2] is Danio rerio. Kind of series: Anticonvulsant activity in AB zebra fish larvae assessed as reduction in PTZ-induced convulsant behavior by measuring swimming distance at 3.1 to 12.5 uM pretreated for 6 hrs followed by PTZ-stimulation and measured every 5 mins for 1 hr. It is filed as functional, organism-based. The note with it: dose 3.1-12.5 µM, time 7.0 hrs.

The nature of series [3]: Toxicity in AB zebra fish larvae assessed as maximum tolerated concentration after 6 hrs. The arrangement: species or system Danio rerio. To be noted: zebrafish, read-out: MTC.
Series [4] is described as follows: Ratio of MTC for toxicity in AB zebra fish larvae to lowest observed effect concentration for Anticonvulsant activity in AB zebra fish larvae assessed as reduction in PTZ-induced convulsant behavior. Details: species or system Danio rerio.
The nature of series [5]: Neurotoxicity in AB zebra fish larvae assessed as decrease in total swimming distance at <= MTC after 6 hrs. It counts as toxicity, Danio rerio. To be noted: zebrafish.
The species named for series [6] is Danio rerio. Put plainly: Anticonvulsant activity in AB zebra fish larvae assessed as reduction in PTZ-induced convulsant behavior by measuring lowest observed effect concentration pretreated for 6 hrs followed by PTZ-stimulation and measured every 5 mins for 1 hr. It is filed as functional. To be noted: time 7 hrs.
Series [7] can be described thus: Neurotoxicity in AB zebra fish larvae assessed as increase in total swimming distance at > 12.5 uM after 6 hrs. It counts as toxicity, Danio rerio. The note with it: zebrafish.
The nature of series [8]: Neurotoxicity in AB zebra fish larvae at 25 uM after 6 hrs. It counts as toxicity, Danio rerio. The note with it: zebrafish.

Calls of active or inactive are those of the source. The rule behind the calls is not given here.

For the compound `CC(C)=CCC1(CC=C(C)C)C(=O)C(O)=C(O)c2oc3c4c(cc(O)c3c(=O)c21)OC(C)(C)C=C4`, the Activity result was “Toxic” in series [1]; “Non-Toxic” in series [5]; over 12.5 µM in series [6]; “Toxic” in series [7]; “Toxic” in series [8]. Besides, in series [2], the outcome was inactive. In addition, the MNTC at 6 h in series [3] was determined as 12.5 µM. In addition, the Ratio in series [4] is listed as under 1.
